Patent US20020147232A1 (priority 2000, published 2002)

Tests used:
[1] = tested on: blood pressure; conditions: cited from earlier work
[2] = Stability of desglymidodrine in solution (comparison of peak areas); assay type: physicochemical; conditions: for 0 days (peak area), autoclave series: before autoclave
Text: The tablets were subject to stability testning. […] The following initial results were obtained:
Stability of desglymidodrinein solution
Based on comparison of peak areas

[3] = tested on: pilomotor reaction; conditions: oral, seven healthy volunteers; cited from earlier work
[4] = Tsutsui, n = 5 healthy volunteers, label = administered drug, cited from earlier work
[5] = Stability of desglymidodrine (calibration curve of desglymidodrine); assay type: physicochemical
[6] = tested on: blood pressure; conditions: oral single dose; cited from earlier work
[7] = solution in Buffer pH 7.4, 0 days

COc1ccc(OC)c(C(O)CN)c1 (stereo not drawn) [desglymidodrine, alpha-(aminomethyl)-2,5-dimethoxy-benzenemethanol]
duration of blood pressure effect ([1]; intravenous injection of 5 mg): 3 to 4 min | peak area, 0 days ([2]; solution in 0.1N HCl, 0 days): 1548689 | 0 days (peak area), autoclave series ([2]; solution in 0.1N HCl, 0 days): 99 | peak area, 7 days ([2]; solution in 0.1N HCl, 7 days): 1516212 | Autoclave 120° C. ([2]; solution in 0.1N HCl, after autoclave 120° C.): 101 | peak area, 0 days [2, 7]: 1341613 | 0 days (peak area), autoclave series [2, 7]: 102 | peak area, 7 days ([2]; solution in Buffer pH 7.4, 7 days): 1289393 | Autoclave 120° C. ([2]; solution in Buffer pH 7.4, after autoclave 120° C.): 102 | peak area, 0 days ([2]; solution in Water, 0 days): 1582140 | 0 days (peak area), autoclave series ([2]; solution in Water, 0 days): 100 | peak area, 7 days ([2]; solution in Water, 7 days): 1601999 | Autoclave 120° C. ([2]; solution in Water, after autoclave 120° C.): 100 | duration of effect (pilomotor reaction) [3]: 160 (135-185) min | time to occurrence of pilomotor reaction [3]: 34 ± 25 min | Tmax desglymidodrine ([4]; analyte desglymidodrine): 1.2 ± 0.2 h | content of desglymidodrine, 14 days ([5]; Glass, 25° C./60% RH 1.2mioluxh): 103 | content of desglymidodrine, 0 days ([5]; Glass, 25° C./60% RH): 100 | content of desglymidodrine, 14 days ([5]; Glass, 25° C./60% RH): 103 | content of desglymidodrine, 21 days ([5]; Glass, 25° C./60% RH): 100 | content of desglymidodrine, 14 days ([5]; Glass, 40° C./75% RH): 102 | content of desglymidodrine, 21 days ([5]; Glass, 40° C./75% RH): 100 | content of desglymidodrine, 0 days ([5]; Open petri dish, 25° C./60% RH): 100 | content of desglymidodrine, 14 days ([5]; Open petri dish, 25° C./60% RH): 102 | content of desglymidodrine, 21 days ([5]; Open petri dish, 25° C./60% RH): 100 | content of desglymidodrine, 14 days ([5]; Open petri dish, 40° C./75% RH): 102 | content of desglymidodrine, 21 days ([5]; Open petri dish, 40° C./75% RH): 97

COc1ccc(OC)c(C(O)CNC(=O)CN)c1 (stereo not drawn) [midodrine, 2-amino-N-[2-(2,5-dimethoxyphenyl)-2-hydroxyethyl]-acetamide, reference compound]
intravenous dose as potent as 5 mg desglymidodrine i.v. with respect to increase of blood pressure ([1]; intravenous): 20 to 25 mg | duration of effect (pilomotor reaction) [3]: 150 (30-240) min | time to occurrence of pilomotor reaction [3]: 74 ± 29 min | Tmax midodrine ([4]; analyte midodrine): 1.4 ± 0.2 h | persistence of pressor effect [6]: 3 to 6 h | time until pressor effect is manifest [6]: 20 to 90 min
